Changes are numbered by the printed parent chain.
How the values were obtained:
[1] = molecular target: T1, Lysinibacillus sphaericus glutamate dehydrogenase (LsGluDH, SEQ ID NO: 2) variant A175G, SEQ ID NO: 31 (Lysinibacillus pinottii, UniProt A0ABT2DNY0, A175G); assay: Dynamic properties (Michaelis-Menten) of LsGluDH mutant, PPO reductive amination; type: biochemical; details: PPO 5-100 mM, NADPH 0.15 mM, NH4Cl 50 mM, PBS pH 7.5, 30° C., diluted crude enzyme, 340 nm
T1 sequence (A0ABT2DNY0 1-457 A175G): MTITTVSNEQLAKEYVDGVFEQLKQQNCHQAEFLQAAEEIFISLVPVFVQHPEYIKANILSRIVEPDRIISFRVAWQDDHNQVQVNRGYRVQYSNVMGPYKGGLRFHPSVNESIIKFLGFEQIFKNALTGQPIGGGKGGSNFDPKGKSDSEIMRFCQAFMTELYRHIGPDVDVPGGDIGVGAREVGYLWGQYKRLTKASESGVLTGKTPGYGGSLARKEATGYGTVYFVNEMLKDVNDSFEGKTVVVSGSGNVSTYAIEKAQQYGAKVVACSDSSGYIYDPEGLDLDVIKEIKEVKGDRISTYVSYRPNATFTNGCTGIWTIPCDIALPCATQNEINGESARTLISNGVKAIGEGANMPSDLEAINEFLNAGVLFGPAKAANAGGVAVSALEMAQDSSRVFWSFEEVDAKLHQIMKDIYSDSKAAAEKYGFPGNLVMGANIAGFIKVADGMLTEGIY
Experimental: (§1) A plurality of reaction systems (200 μL) comprising PBS of 100 mM pH 7.5 (pH was adjusted with aqueous ammonia solution), NADPH (reductive) of 0.15 mM, NH4Cl of 50 mM, diluted (500 folds) crude enzyme solution of 10% volume and the substrate PPO at various concentrations (5-100 mM) were formulated on a 96-well plate. The intensity of the UV absorption at 340 nm was detected at 30° C., and the rate of change in absorption over time (mA/min) was recorded. The obtained parameters were plugged into Michaelis-Menten equation, in which the reaction velocity was calculated with the rate of change in absorption.
(§2) The mutants were prepared with the coding nucleic acid of LsGluDH (SEQ ID NO: 2) as the template, and the enzyme activities and the dynamic parameters Vmax and Km were measured, according to the method of Example 1. The resulted mutants and the enzyme activities and the dynamic parameters thereof are shown in Table 2, and the relative enzyme activity means the percentage of the enzyme activity of the mutant to the enzyme activity of the mutant of SEQ ID NO: 31.

[2] = molecular target: T2, Lysinibacillus sphaericus glutamate dehydrogenase (LsGluDH, SEQ ID NO: 2) variant A175G-P132L, SEQ ID NO: 32 (Lysinibacillus pinottii, UniProt A0ABT2DNY0, A175G/P132L); assay: as above; type: biochemical; details: PPO 5-100 mM, NADPH 0.15 mM, NH4Cl 50 mM, PBS pH 7.5, 30° C., diluted crude enzyme, 340 nm
T2 sequence (A0ABT2DNY0 1-457 P132L/A175G): T1 sequence (A0ABT2DNY0 1-457 A175G) with P132L
Experimental: as §1, §2

SMILES: CP(=O)(O)CCC(=O)C(=O)O [PPO, 2-carbonyl-4-(hydroxymethylphosphono) butyric acid]
- Km [1]: 49 mM
- Vmax [1]: 39 mA/min
- Km [2]: 35 mM
- Vmax [2]: 45 mA/min

Source: patent US20250129344A1, “MODIFIED GLUTAMATE DEHYDROGENASE AND APPLICATION THEREOF” (Hunan Lier Biotech Co., Ltd., priority 2021, published 2025)
